Assay results reported in patent publication US20020128189A1, “Ubiquitination of the transcription factor E2A” (President and Fellows of Harvard College, a Massachusetts …, priority 1996, published 2002).
pIC50: −log10 of the molar value. Square brackets hold non-standard residues; d marks the D form. Peptide text beside a SMILES is read from it. * marks the point of attachment. Nle = CCCC[C@H](N)C(=O)O; Nva = CCC[C@H](N)C(=O)O; Cbz = O=C(OCc1ccccc1)*

Key:
ovalbumin degradation = details: Rock et al., cited from earlier work; for pIC50: read-out: concentration causing 50% inhibition of ovalbumin degradation
[1] = tested on: NF-kB precursor protein p105; details: cited from earlier work
20S proteasome = target: T1, 20S proteasome (Homo sapiens, UniProt P28074); details: cited from earlier work
T1 sequence (P28074 60-263): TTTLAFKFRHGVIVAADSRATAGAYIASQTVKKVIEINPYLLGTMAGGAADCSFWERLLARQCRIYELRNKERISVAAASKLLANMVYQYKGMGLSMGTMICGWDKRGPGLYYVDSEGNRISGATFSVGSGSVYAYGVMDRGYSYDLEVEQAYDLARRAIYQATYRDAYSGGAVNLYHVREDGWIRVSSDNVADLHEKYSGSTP

[2] = tested on: p27 inhibitor of cyclin-dependent kinases; details: cited from earlier work
human E12 = test: Pulse-chase analysis of E12 degradation in COS7 cells treated with proteasome/protease inhibitors; type: cell-based; details: 60 min pulse, 3 hour chase
Description: FIG. 2 is a bar graph representing the relative expression of E12 after treatment with the proteasome inhibitor MG132 and the protease inhibitor leupeptin, as follows. COS cells were electroporated with a human E12 expression plasmid. After electroporation (48 hours), cells were treated with either DMSO (a diluent for MG132), 50 μM MG132, or 1 μg/ml leupeptin for 1 hour. The cells were then pulse-chased with [^35S] methionine and the cell extracts were immunoprecipitated with anti-E12 antibody and analyzed by SDS-PAGE fluorography. Inhibitors were present throughout the entire pulse-chase period.
Cells in 100 mm dishes (either transfected cells 48 hours after transfection or stable cell lines at about 80% confluence) were starved in Met-free DMEM (supplemented with 5% dialyzed fetal bovine serum) for 60 minutes at 37° C. Cells were then pulse-labeled at 37° C. with 100 μCi/ml [^35S]met for 60 minutes at 37° C. Cells were chased in warm DMEM supplemented with 100 μg/ml Met. For the proteasome inhibitor experiment, the inhibitor MG132 […] was added 1 hour before pulse-chase and was present throughout the entire period. […] Incorporation of ^35S into the total protein pool was determined by trichloroacetic acid (TCA) precipitation. […] The bands were measured using a PhosphorImager (Molecular Dynamics). […]

Compound | pIC50 (ovalbumin degradation) | effect on processing of the NF-kB precursor protein p105 [1] | inhibition of the chymotryptic site on the 20S proteasome (20S proteasome) | effect on degradation of the p27 inhibitor of cyclin-dependent kinases [2] | also measured
CSCC[C@@H](C=O)NC(=O)[C@H](CC(C)C)NC(=O)[C@H](CC(C)C)NC(C)=O [LLM, N-acetyl-L-leucinyl-L-leucinyl-methional] (Ac-Leu-Leu-Met-aldehyde) | < 4.00 | – | – | – | –
CCCC[C@@H](C=O)NC(=O)[C@H](CC(C)C)NC(=O)[C@H](CC(C)C)NC(C)=O [MG101] (Ac-Leu-Leu-[Nle]-aldehyde) | – | block the processing | potent inhibitors | inhibit the degradation | –
CCC[C@@H](C=O)NC(=O)[C@H](CC(C)C)NC(=O)[C@H](CC(C)C)NC(=O)OCc1ccccc1 [MG115, N-carbobenzoxyl-L-leucinyl-L-leucinyl-L-norvalinal] (Cbz-Leu-Leu-[Nva]-aldehyde) | 6.40 | – | potent inhibitors | – | potency relative to LLnL (ovalbumin proteolysis) (ovalbumin degradation): approximately 5 fold
CC(C)C[C@@H](C=O)NC(=O)[C@H](CC(C)C)NC(=O)[C@H](CC(C)C)NC(=O)OCc1ccccc1 [MG132] (Cbz-Leu-Leu-Leu-aldehyde) | – | block the processing | potent inhibitors | inhibit the degradation | E12 protein stability (effect on E12 degradation) (human E12; 50 μM MG132 added 1 hour before and present throughout): stabilized
CC(=O)N[C@@H](CC(C)C)C(=O)N[C@@H](CC(C)C)C(=O)N[C@H](C=O)CCCNC(=N)N [leupeptin] | – | – | – | – | E12 protein stability (effect on E12 degradation) (human E12; leupeptin 1 μg/ml added 1 hour before and present throughout): no effect
